Patent US7959954B2, “Pharmaceutical composition for treatment of diabetes and dyslipidemia” (Council of Scientific and Industrial Research, priority 2005, dated 2011)
Marks after values point to notes of the source that are not given here.

Columns and labels:
dislipidemic hamster = test: Antidyslipidemic activity in dislipidemic (high fat diet) hamster model;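 also: male golden Syrian hamsters on high fat diet for 10 days, oral treatment days 4–10, non-fasted plasma sampled on day 10, compared with vehicle-treated high fat diet controls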
Procedure: Test Models used for the Evaluation of the Antidyslipidemic Activity:
Male golden Syrian Hamsters weighing 120-130 g were divided into dyslipidemic and dislipidemic plus drug treated groups of the eight animals in each groups were used. Feeding with high fat diet (supplied by NOVO—NORDISK, Dennmark, Cat produced Dyslipidemia. No-99122211). Dislipidemic hamsters had free access to HFD and water ad-libitum. throughout the experiment for ten days. The test sample was fed orally at a dose of 250 mg./kg. from day-4 to day-10 (7 days) in the HFD hamsters. Normal hamsters fed with HFD and given drug vehicle only, served as control animals. Body weight of each animal and diet intake of each animal group was recorded daily to check the effect of the drug on food intake and body weight of the animals. At the end of the experiment i.e. on day 10th, the blood of non fasted animals were withdrawn in two sets of tubes in which one set contains 120 μl NaF (4.5 mg./ml) and after 15 min. in cold, plasma was separated. Biochemical analysis of plasma with out NaF was performed on the same day for Triglycerides (TG) total Cholesterol (TC) HDL-Cholesterol using enzymatic diagnostic kits. Similarly the plasma containing NaF Glucose was assayed for glucose, glycerol and free Fatty acids (FFA) on Synchron CX-5. Clinical System Beckmann Coulter Instrument.

[1] = system: sucrose challenged Streptozotocin induced diabetic rats; test: STZ-s model, sucrose challenged low dosed Streptozotocin induced diabetic rats; type: in vivo, Male albino rats of Sprague Dawley strain; conditions: for STZ-s model % change 5 h / STZ-s model % change 24 h: dose 25 mg/kg
Procedure: [formula] […] [B] (ii) STZ-s Procedure
Male albino rats of Sprague Dawley strain of the body weight 160±20 g were selected for this study. Streptozotocin (Sigma, USA) was dissolved in 100 mM citrate buffer pH 4.5 and calculated amount of the fresh solution was injected to overnight fasted rats (45 mg./Kg.) intraperitonially. Blood was checked 48 hours later by glucosetrips and animals showing blood glucose values between 144 to 270 mg./dl. (8 to 15 mM) were included in the experiments and termed diabetic. The diabetic animals were divided into groups comprising 5 to 6 animals in each group. […] The animals of the control group were given an equal amount of 1.0% gum acacia. A sucrose load of the 2.5 g/Kg of the body weight was given after 30 minutes of the drug administration. After 30 minutes of the post sucrose load blood glucose level was again checked by glucostrips at 30, 60, 90, 120, 180, 240, 300 minutes and 24 hours respectively. […] The food but not the water was withheld from the cages during the experimentation. Comparing the AUC of experimental and control groups determined the percent of antihyperglycemic activity. Statistical comparison between groups was made by the Student's “t” test.

STZ injected rats = test: STZ model, antihyperglycemic activity; type: in vivo, Sprague-Dauley [SD] strain male albino rats; conditions: dose 100 mg/kg
Procedure: Drug metformate was administered half an hour before glucose was given. […] Statistical significance was done by AUC-method. [B] (i) STZ-Model Procedure Sprague-Dauley [SD] strain male albino rats of body weight 160±20 g were taken for study. Animals in 3 cage were kept for 7 days under standard experimental conditions before the experiment. Animals were given standard rat-pellet diet and tap-water ad-libitum. Day ‘0’-Day before experiment, animals were kept for overnight starvation. […] USA] was injected intraperitoneally to all the starved animals at a dose of 60 mg/kg, dissolved in 100 m M citrate buffer, pH 4.5. Day ‘2’ rats remained as such in the same conditions. Food pellets were removed on the penultimate day at 5:00 P.M. in the evening and animals were kept on over night starvation. […] Blood was taken from tail of the rats by stab-techniques and the glucose level was estimated using “Advantage Glucometer” of Boehringer Mannheim Co, USA. […] Group-I was kept only for control [STZ-injection were given only]. Group II were treated with STZ+test samples. […] [formula] The extract/fraction/compounds found active were statistically analyzed to determine area under curve [AUC] by plotting the blood-glucose values against time. [B] (ii) STZ-s Procedure

db/db mice [2] = test: Anti-dislipidemic activity (lipid profile) in db/db mice; type: in vivo, C57BL/KsBom-db mice; conditions: dose 10 mg/Kg
Description: The db/db mouse is a well-characterized model of type-2 diabetes. The background for the db/db mouse is the C57BL/Ks strain. The major deficiency of the C57BL.Ks Bom-db mouse (db/db) is lack of a functional leptin receptor. This leads to defective leptin signaling and a complete lack of feedback from leptin. […] The db/db mouse develops NIDDM from around week 10. The disease is stable until week 20, where destruction of pancreatic β-cells can be recognized clinically as decreasing levels of plasma insulin and very severe […]. The db/db mouse has a maximal life span of 9-12 months. The advantage of using male mice for experimental purposes is that the fluctuations in plasma parameters are less than in females where the oestrogens cycle affects the clinical diabetes. The optimal age of db/db mice used for experiments will be from week-12 to 18 when they have developed NIDDM with diabetic dyslipidemia but still have functional β-cells in the pancreas. C57BL/KsBom-db mice 12-18 weeks, 40-50 g bred in the animal house of CDRI, Lucknow. 10 mice were housed in groups of (5 males and 5 females) were housed in groups of 5 individuals (same sex) in a room controlled for temperature (23±2.0° C.) and 12/12 hours light/dark cycle (light on 6.00AM.). Body weight was measured daily from day 1 to day 10. All animals had free access to fresh water and to normal chow except on the days of the post prandial protocol day 6 and during the overnight fast before the OGTT on day 10. The animals always had access to water during experimental periods. Blood glucose was checked every morning up till day 5. On day 6 post prandial protocol was employed, in this method blood glucose was checked at −0.5 h and 0 h. […] Blood glucose was measured at 0.0 min. post treatment, at this juncture glucose solution was given at a dose of 3 g./Kg. to all the groups including vehicle; the profile of blood glucose was checked at 30, 60, 90 and 120 minutes post glucose administration.

db/db mice [3] = test: db/db mice antihyperglycemic activity (day 6 post prandial, day 10 OGTT); type: in vivo, C57BL/KsBom-db mice
Description: The db/db mouse is a well-characterized model of type-2 diabetes. The background for the db/db mouse is the C57BL/Ks strain. The major deficiency of the C57BL.Ks Bom-db mouse (db/db) is lack of a functional leptin receptor. This leads to defective leptin signaling and a complete lack of feedback from leptin. […] The db/db mouse develops NIDDM from around week 10. The disease is stable until week 20, where destruction of pancreatic β-cells can be recognized clinically as decreasing levels of plasma insulin and very severe […]. The db/db mouse has a maximal life span of 9-12 months. The advantage of using male mice for experimental purposes is that the fluctuations in plasma parameters are less than in females where the oestrogens cycle affects the clinical diabetes. The optimal age of db/db mice used for experiments will be from week-12 to 18 when they have developed NIDDM with diabetic dyslipidemia but still have functional β-cells in the pancreas. C57BL/KsBom-db mice 12-18 weeks, 40-50 g bred in the animal house of CDRI, Lucknow. 10 mice were housed in groups of (5 males and 5 females) were housed in groups of 5 individuals (same sex) in a room controlled for temperature (23±2.0° C.) and 12/12 hours light/dark cycle (light on 6.00AM.). Body weight was measured daily from day 1 to day 10. All animals had free access to fresh water and to normal chow except on the days of the post prandial protocol day 6 and during the overnight fast before the OGTT on day 10. The animals always had access to water during experimental periods. Blood glucose was checked every morning up till day 5. On day 6 post prandial protocol was employed, in this method blood glucose was checked at −0.5 h and 0 h. The test samples were given to the treatment group whereas vehicle received the only gum acacia (1.0%); the blood glucose was again checked at 1, 2, 3, 4 and 6 h posttest drug treatment. On day 8, blood was collected for serum insulin and lipid profile measurements and finally on day 10 an oral glucose tolerance test (OGTT) was performed after an overnight fasting. Blood glucose was measured at 0.0 min. post treatment, at this juncture glucose solution was given at a dose of 3 g./Kg. to all the groups including vehicle; the profile of blood glucose was checked at 30, 60, 90 and 120 minutes post glucose administration.
Table-5-a represents the antihyperglycemic activity profile of 50% Aq.-EtOH extract and chloroform soluble fraction of the aq.-ethanolic extract and the standard drug Roziglitazone in hyperglycemic and hyperinsulinemic db/db mice. The results of the antidiabetic evaluations of the epicarp extracts/fractions/compounds in GLM and STZ models are given in table-1

CC(C)OC(=O)C(C)(C)Oc1ccc(C(=O)c2ccc(Cl)cc2)cc1 [Fenofibrate, reference compound]
CHOL (Cholesterol) (dislipidemic hamster; dose 108.24 mg/kg (300 μmole)): −18* % | FFA (Free Fatty Acid) (dislipidemic hamster; dose 108.24 mg/kg (300 μmole)): −20* % | GLU (Glucose) (dislipidemic hamster; dose 108.24 mg/kg (300 μmole)): −22% | GLY (Glycerol) (dislipidemic hamster; dose 108.24 mg/kg (300 μmole)): −36** % | H/C (High density lipoprotein/cholesterol ratio) (dislipidemic hamster; dose 108.24 mg/kg (300 μmole)): +10% | TG (Triglycerides) (dislipidemic hamster; dose 108.24 mg/kg (300 μmole)): −42* %

CC(=O)O[C@@H]1C[C@H]2C(C)(C)C(=O)C=C[C@]2(C)[C@H]2CC[C@@]3(C)[C@H](c4ccoc4)OC(=O)[C@H]4O[C@]43[C@@]21C [Gedunin]
activity in STZ-s model ([1]; rat, in vivo): active | In STZ model % lowering (STZ injected rats): 10.5% | In STZ model % lowering (STZ injected rats; listed as gedunin): promising activity | CHOL (Cholesterol) (dislipidemic hamster; dose 25 mg/kg): +14% | FFA (Free Fatty Acid) (dislipidemic hamster; dose 25 mg/kg): −36*** % | GLU (Glucose) (dislipidemic hamster; dose 25 mg/kg): −28*** % | GLY (Glycerol) (dislipidemic hamster; dose 25 mg/kg): −22% | H/C (High density lipoprotein/cholesterol ratio) (dislipidemic hamster; dose 25 mg/kg): +11% | HDL (High Density Lipoprotein) (dislipidemic hamster; dose 25 mg/kg): +27* % | TG (Triglycerides) (dislipidemic hamster; dose 25 mg/kg): −47*** % | activity in antidislipidemic hamster model (dislipidemic hamster; hamster, in vivo): active

CN(C)C(=N)N=C(N)N [Metformin, reference compound]
STZ-s model % change 5 h ([1]; 5 h): −23.6** % | STZ-s model % change 24 h ([1]; 24 h): −26.5** % | % Antihyperglycemic activity 5 h ([1]; dose 100 mg/Kg, 5 h): 23.6* ** % | % Antihyperglycemic activity 24 h ([1]; dose 100 mg/Kg, 24 h): 26.5* * * %

CCCCCCCCCCCCCCCC(=O)O [Palmitic acid]
% Activity in STZ-s model ([1]; dose 100 mg/Kg): −5.6%

CN(CCOc1ccc(CC2SC(=O)NC2=O)cc1)c1ccccn1 (stereo not shown) [Roziglitazone]
Anti-dislipidemic activity CHOL (db/db mice [2]): −5.5 | Anti-dislipidemic activity HDL-C (db/db mice [2]): +7.14 | Anti-dislipidemic activity TG (db/db mice [2]): −16.0 | antidiabetic effect in db/db mice (db/db mice [3]; 10 mg/Kg): same order of activities | % Antihyperglycemic activity Day 6 (db/db mice [3]; dose 3.0 mg/Kg, Day 6): 6.24* % | % Antihyperglycemic activity Day 10 (db/db mice [3]; dose 3.0 mg/Kg, Day 10): 48.5* ** % | Antihyperglycemic activity Day 6 (db/db mice [3]; dose 10 mg/Kg, Day 6): −13.8 ** | Antihyperglycemic activity Day 10 (db/db mice [3]; dose 10 mg/Kg, Day 10): −27.4 ***

CC[C@H](CC[C@@H](C)[C@H]1CC[C@H]2[C@@H]3CC=C4C[C@@H](O[C@@H]5O[C@H](CO)[C@@H](O)[C@H](O)[C@H]5O)CC[C@]4(C)[C@H]3CC[C@]12C)C(C)C [β-Sitosterol-β-D-glucoside]
% Activity in STZ-s model ([1]; dose 100 mg/Kg): +10.1%

CC[C@H](CC[C@@H](C)[C@H]1CC[C@H]2[C@@H]3CC=C4C[C@@H](O)CC[C@]4(C)[C@H]3CC[C@]12C)C(C)C [β-Sitosterol]
STZ-s model % change 5 h ([1]; 5 h): Nil | STZ-s model % change 24 h ([1]; 24 h): Nil | FFA (Free Fatty Acid) (dislipidemic hamster; dose 25 mg/kg): −38*** % | GLY (Glycerol) (dislipidemic hamster; dose 25 mg/kg): −14% | H/C (High density lipoprotein/cholesterol ratio) (dislipidemic hamster; dose 25 mg/kg): −7% | HDL (High Density Lipoprotein) (dislipidemic hamster; dose 25 mg/kg): −5% | TG (Triglycerides) (dislipidemic hamster; dose 25 mg/kg): −7%

Photogedunin
% Activity in STZ-s model ([1]; dose 100 mg/Kg): +30.5%

Xyloccensin-E
STZ-s model % change 5 h ([1]; 5 h): −6.91% | STZ-s model % change 24 h ([1]; 24 h): −0.34% | CHOL (Cholesterol) (dislipidemic hamster; dose 10 mg/kg): −18% | FFA (Free Fatty Acid) (dislipidemic hamster; dose 10 mg/kg): −43* % | H/C (High density lipoprotein/cholesterol ratio) (dislipidemic hamster; dose 10 mg/kg): −10% | HDL (High Density Lipoprotein) (dislipidemic hamster; dose 10 mg/kg): −25% | TG (Triglycerides) (dislipidemic hamster; dose 10 mg/kg): −22%

Xyloccensin-I
STZ-s model % change 5 h ([1]; 5 h): Nil | STZ-s model % change 24 h ([1]; 24 h): Nil | FFA (Free Fatty Acid) (dislipidemic hamster; dose 25 mg/kg): −17% | GLY (Glycerol) (dislipidemic hamster; dose 25 mg/kg): −5% | H/C (High density lipoprotein/cholesterol ratio) (dislipidemic hamster; dose 25 mg/kg): −7% | HDL (High Density Lipoprotein) (dislipidemic hamster; dose 25 mg/kg): −5%
